Measurements published in patent US10689378B2, “Triazolopyridine compounds and uses thereof” (Novartis AG, priority 2016, dated 2020).

Tests used:
EED (1-441)-His protein = molecular target: T1, EED (1-441)-His protein (Homo sapiens, UniProt O75530); test: EED-H3K27Me3 peptide competition binding assay by AlphaScreen; details: EED-H3K27Me3 peptide competition, AlphaScreen; read-out: (a) IC50 EED Alphascreen binding Qualified
T1 construct: 30 nM EED (1-441)-His protein
Summary of the method: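 Serially diluted compound (12 points, 3-fold) incubated 20 min with 30 nM EED(1-441)-His and 15 nM biotin-H3K27Me3(19-33) peptide in 25 mM HEPES pH 8, 0.02% Tween-20, 0.5% BSA. Ni-chelate acceptor/streptavidin donor beads (10 μg/mL each) added, 1 h rt dark; 615 nm emission normalized to controls, dose-response fit for IC50.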

[1] = molecular target: wild type PRC2 (wtPRC2) complex (Homo sapiens, UniProt O75530); test: EED LC-MS assay (SAH production by PRC2); assay type: biochemical; details: PRC2 LC-MS assay; read-out: (b) IC50 EED LC-MS Qualified
Chain of wild type PRC2 (wtPRC2) complex (O75530 whole entry): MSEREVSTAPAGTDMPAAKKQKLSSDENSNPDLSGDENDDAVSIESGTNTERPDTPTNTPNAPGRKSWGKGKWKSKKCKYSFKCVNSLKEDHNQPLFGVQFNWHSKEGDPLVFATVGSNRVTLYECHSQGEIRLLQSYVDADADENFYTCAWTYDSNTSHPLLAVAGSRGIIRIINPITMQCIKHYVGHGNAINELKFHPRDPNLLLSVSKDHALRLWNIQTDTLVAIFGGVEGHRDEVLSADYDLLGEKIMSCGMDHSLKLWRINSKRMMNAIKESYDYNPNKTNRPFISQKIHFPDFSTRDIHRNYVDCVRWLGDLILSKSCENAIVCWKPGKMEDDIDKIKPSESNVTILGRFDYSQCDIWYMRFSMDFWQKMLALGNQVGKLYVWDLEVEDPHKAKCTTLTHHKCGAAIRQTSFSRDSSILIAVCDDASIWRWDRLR
Chain of wild type PRC2 (wtPRC2) complex (Q15910 whole entry partner): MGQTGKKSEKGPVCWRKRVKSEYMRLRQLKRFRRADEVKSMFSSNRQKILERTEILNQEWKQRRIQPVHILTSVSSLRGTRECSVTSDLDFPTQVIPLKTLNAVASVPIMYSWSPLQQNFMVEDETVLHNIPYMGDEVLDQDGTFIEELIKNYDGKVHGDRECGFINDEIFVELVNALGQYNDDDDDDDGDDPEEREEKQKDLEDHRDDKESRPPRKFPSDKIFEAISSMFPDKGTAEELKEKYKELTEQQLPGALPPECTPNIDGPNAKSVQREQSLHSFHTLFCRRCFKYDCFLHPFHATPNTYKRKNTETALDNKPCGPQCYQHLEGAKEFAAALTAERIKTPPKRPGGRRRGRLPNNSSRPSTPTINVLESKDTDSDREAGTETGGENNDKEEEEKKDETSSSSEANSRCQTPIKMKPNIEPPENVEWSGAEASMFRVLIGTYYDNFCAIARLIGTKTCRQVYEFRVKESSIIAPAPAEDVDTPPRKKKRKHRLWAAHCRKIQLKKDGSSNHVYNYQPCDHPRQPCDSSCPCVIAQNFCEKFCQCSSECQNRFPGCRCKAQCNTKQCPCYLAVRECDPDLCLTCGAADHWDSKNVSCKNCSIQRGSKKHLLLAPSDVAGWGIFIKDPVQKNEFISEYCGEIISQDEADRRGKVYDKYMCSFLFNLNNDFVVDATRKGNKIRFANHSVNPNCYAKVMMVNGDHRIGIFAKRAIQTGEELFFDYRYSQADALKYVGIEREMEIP
Chain of wild type PRC2 (wtPRC2) complex (Q15022 whole entry partner): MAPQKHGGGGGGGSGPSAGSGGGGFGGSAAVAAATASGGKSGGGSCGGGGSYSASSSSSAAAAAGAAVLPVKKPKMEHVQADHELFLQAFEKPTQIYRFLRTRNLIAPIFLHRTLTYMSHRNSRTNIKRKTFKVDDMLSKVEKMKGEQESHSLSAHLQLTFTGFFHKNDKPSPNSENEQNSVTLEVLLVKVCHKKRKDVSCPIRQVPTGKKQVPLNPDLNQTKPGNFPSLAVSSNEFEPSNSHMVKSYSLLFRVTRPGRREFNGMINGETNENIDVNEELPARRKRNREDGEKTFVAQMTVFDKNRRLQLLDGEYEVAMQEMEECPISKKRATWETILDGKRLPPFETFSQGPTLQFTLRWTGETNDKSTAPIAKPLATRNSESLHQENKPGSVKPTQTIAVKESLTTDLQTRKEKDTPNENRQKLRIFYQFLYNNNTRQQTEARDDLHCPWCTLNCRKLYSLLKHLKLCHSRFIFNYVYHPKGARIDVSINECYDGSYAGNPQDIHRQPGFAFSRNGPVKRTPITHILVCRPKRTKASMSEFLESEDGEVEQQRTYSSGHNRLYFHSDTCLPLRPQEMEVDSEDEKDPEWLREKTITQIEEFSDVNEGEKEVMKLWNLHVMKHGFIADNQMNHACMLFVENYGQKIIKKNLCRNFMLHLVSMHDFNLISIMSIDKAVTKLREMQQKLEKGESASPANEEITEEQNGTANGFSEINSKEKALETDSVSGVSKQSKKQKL
Chain of wild type PRC2 (wtPRC2) complex (Q09028 whole entry partner): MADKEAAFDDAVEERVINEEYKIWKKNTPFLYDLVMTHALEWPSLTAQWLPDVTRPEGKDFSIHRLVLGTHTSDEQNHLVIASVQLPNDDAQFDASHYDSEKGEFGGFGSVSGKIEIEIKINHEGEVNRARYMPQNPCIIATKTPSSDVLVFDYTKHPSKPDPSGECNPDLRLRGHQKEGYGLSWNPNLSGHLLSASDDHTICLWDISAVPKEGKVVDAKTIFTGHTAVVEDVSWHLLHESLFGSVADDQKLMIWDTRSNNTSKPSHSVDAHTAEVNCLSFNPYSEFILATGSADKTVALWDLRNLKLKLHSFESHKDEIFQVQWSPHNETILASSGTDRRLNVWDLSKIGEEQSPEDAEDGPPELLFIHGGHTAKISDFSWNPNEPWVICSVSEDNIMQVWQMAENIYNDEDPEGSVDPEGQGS
Chain of wild type PRC2 (wtPRC2) complex (Q6ZN18 whole entry partner): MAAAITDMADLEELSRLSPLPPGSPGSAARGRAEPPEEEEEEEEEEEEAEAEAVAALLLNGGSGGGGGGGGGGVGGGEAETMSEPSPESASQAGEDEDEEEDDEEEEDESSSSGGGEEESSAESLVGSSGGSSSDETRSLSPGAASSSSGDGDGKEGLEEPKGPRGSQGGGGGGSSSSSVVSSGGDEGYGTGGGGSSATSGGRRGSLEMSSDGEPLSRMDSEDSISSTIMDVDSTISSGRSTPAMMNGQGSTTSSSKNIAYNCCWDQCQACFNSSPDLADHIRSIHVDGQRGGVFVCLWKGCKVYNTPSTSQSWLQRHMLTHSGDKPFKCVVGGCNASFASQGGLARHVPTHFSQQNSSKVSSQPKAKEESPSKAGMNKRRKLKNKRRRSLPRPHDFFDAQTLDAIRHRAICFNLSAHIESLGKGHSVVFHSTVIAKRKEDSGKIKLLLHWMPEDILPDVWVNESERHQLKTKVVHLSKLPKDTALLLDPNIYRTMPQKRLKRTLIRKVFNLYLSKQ
Summary of the method: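 Pentameric PRC2 (EZH2, SUZ12, EED, Rbap48, AEBP), 12 nM final, preincubated 20 min with compound and SAM, then 1.5 μM biotinylated H3K27me0 peptide, 1 μM SAM, pH 8.0, 120 min at rt. SAH quantified by LC-MS/MS with d4-SAH; control-normalized activity fitted for IC50.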

[2] = system: H3K27 methylation in G401 cell; test: ELISA (H3K27 methylation) assay in G401 cells; assay type: cell-based, human; details: Homo sapiens, G-401, H3K27 methylation ELISA, read-out: (c) IC50 ELISA Qualified
Summary of the method: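 G401 cells treated 48 h with 3-fold dilutions (8 or 12 points, top 20 μM). Acid-extracted histones probed by ELISA for H3K27me3 or H3K27me2 with ECL readout, normalized to total H3. Percent inhibition versus DMSO fitted to dose-response curve for IC50.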

T1 sequence (O75530 whole entry): as the sequence (O75530 whole entry) above

Q: With `COc1cccc(F)c1CNc1ccc(-c2ccnn2C2CC2)c2nncn12` [Example 292, 8-(1-cyclopropyl-1H-pyrazol-5-yl)-N-(2-fluoro-6-methoxybenzyl)-[1,2,4] triazolo[4,3-a]pyridin-5-amine] as the compound, how does the IC50 (EED (1-441)-His protein) read?
A: 29 nM

Q: And the IC50 [1]?
A: 195 nM

Q: And the IC50 [2]?
A: 11.4 nM

Q: With `COc1cccc(F)c1CNc1ccc(-c2ccc(S(C)(=O)=O)nc2C(F)F)c2nncn12` [Example 293, 8-(2-(difluoromethyl)-6-(methylsulfonyl)pyridin-3-yl)-N-(2-fluoro-6-methoxybenzyl)-[1,2,4] triazolo[4,3-a]pyridin-5-amine] as the compound, how does the IC50 (EED (1-441)-His protein) read?
A: 31.4 nM

Q: What about the IC50 [1] of the same compound?
A: 20.1 nM

Q: And the IC50 [2]?
A: 10.6 nM

Q: Which results are given for `COc1cccc(F)c1CNc1ccc(-c2cccnc2CF)c2nncn12` [Example 294, N-(2-fluoro-6-methoxybenzyl)-8-(2-(fluoromethyl)pyridin-3-yl)-[1,2,4] triazolo[4,3-a]pyridin-5-amine]?
A: IC50 (EED (1-441)-His protein): 23.9 nM; IC50 [1]: 116 nM; IC50 [2]: 9.4 nM

Q: `COc1cc(F)cc(F)c1CNc1ccc(-c2ccc(C(=O)N(C)C)cc2C)c2nncn12` [Example 295, 4-(5-((2,4-difluoro-6-methoxybenzyl)amino)-[1,2,4]triazolo[4,3-a]pyridin-8-yl)-N,N,3-trimethyl benzamide] was tested. Which IC50 (EED (1-441)-His protein) did it give?
A: 30.7 nM

Q: And the IC50 [1]?
A: 321 nM

Q: And the IC50 [2]?
A: 12.4 nM

Q: How did the IC50 (EED (1-441)-His protein) turn out when `COc1cc(F)cc(F)c1CNc1ccc(-c2ccnn2C)c2nncn12` [Example 296, N-(2,4-difluoro-6-methoxybenzyl)-8-(1-methyl-1H-pyrazol-5-yl)-[1,2,4] triazolo[4,3-a]pyridin-5-amine] was run?
A: 13 nM

Q: And the IC50 [1]?
A: 126 nM

Q: What about the IC50 [2] of the same compound?
A: 5.1 nM

Q: Which IC50 (EED (1-441)-His protein) does the source give for `COc1cc(F)cc(F)c1CNc1ccc(-c2ccncc2C)c2nncn12` [Example 297, N-(2,4-difluoro-6-methoxybenzyl)-8-(3-methylpyridin-4-yl)-[1,2,4]triazolo[4,3-a] pyridin-5-amine] here?
A: 42.3 nM

Q: And the IC50 [1]?
A: 618 nM

Q: And the IC50 [2]?
A: 17.5 nM

Q: Which results are given for `CCc1ncccc1-c1ccc(NCc2c(F)cc(F)cc2OC)n2cnnc12` [Example 298, N-(2,4-difluoro-6-methoxybenzyl)-8-(2-ethylpyridin-3-yl)-[1,2,4]triazolo[4,3-a] pyridin-5-amine]?
A: IC50 (EED (1-441)-His protein): 67.9 nM; IC50 [1]: 362 nM; IC50 [2]: 86.9 nM

Q: `COc1cc(F)cc(F)c1CNc1ccc(-c2cncnc2C)c2nncn12` [Example 299, N-(2,4-difluoro-6-methoxybenzyl)-8-(4-methylpyrimidin-5-yl)-[1,2,4] triazolo[4,3-a]pyridin-5-amine] was tested. Which IC50 (EED (1-441)-His protein) did it give?
A: 27.6 nM

Q: What about the IC50 [1] of the same compound?
A: 66.6 nM

Q: And the IC50 [2]?
A: 11.9 nM

Q: Which results are given for `COc1cccc(F)c1CNc1ccc(-c2cnc(S(C)(=O)=O)cc2C(F)F)c2nncn12` [Example 301, 8-(4-(difluoromethyl)-6-(methylsulfonyl)pyridin-3-yl)-N-(2-fluoro-6-methoxybenzyl)-[1,2,4]triazolo[4,3-a] pyridin-5-amine]?
A: IC50 (EED (1-441)-His protein): 23.7 nM; IC50 [1]: 93.4 nM; IC50 [2]: 6.4 nM

Q: For `COc1cc(F)cc(F)c1CNc1ccc(-c2cccnc2C(F)F)c2nncn12` [Example 302, N-(2,4-difluoro-6-methoxybenzyl)-8-(2-(difluoromethyl)pyridin-3-yl)-[1,2,4]triazolo[4,3-a]pyridin-5-amine], which IC50 (EED (1-441)-His protein) is on record?
A: 13.3 nM

Q: And the IC50 [1]?
A: 39.3 nM

Q: What about the IC50 [2] of the same compound?
A: 9.8 nM

Q: `COc1cccc(F)c1CNc1ccc(-c2cccnc2CO)c2nncn12` [Example 303, (3-(5-((2-fluoro-6-methoxy benzyl)amino)-[1,2,4]triazolo[4,3-a]pyridin-8-yl)pyridin-2-yl)methanol] was tested. Which IC50 (EED (1-441)-His protein) did it give?
A: 27.6 nM

Q: What about the IC50 [1] of the same compound?
A: 20.4 nM

Q: What about the IC50 [2] of the same compound?
A: 15.5 nM

Q: `COc1cccc(F)c1CNc1ccc(-c2cnc(OC(F)F)cc2C)c2nncn12` [Example 304, 8-(6-(difluoromethoxy)-4-methylpyridin-3-yl)-N-(2-fluoro-6-methoxybenzyl)-[1,2,4]triazolo[4,3-a]pyridin-5-amine] was tested. Which IC50 (EED (1-441)-His protein) did it give?
A: 26.6 nM

Q: And the IC50 [1]?
A: 48.3 nM

Q: And the IC50 [2]?
A: 18 nM

Q: Which IC50 (EED (1-441)-His protein) does the source give for `COc1cccc(F)c1CNc1ccc(-c2cc(C)ncc2C)c2nncn12` [Example 305, 8-(2,5-dimethylpyridin-4-yl)-N-(2-fluoro-6-methoxybenzyl)-[1,2,4]triazolo[4,3-a] pyridin-5-amine] here?
A: 52.6 nM

Q: What about the IC50 [1] of the same compound?
A: 94.6 nM

Q: And the IC50 [2]?
A: 28.2 nM

Q: For `COc1cccc(F)c1CNc1ccc(-c2cc(C(F)F)ncc2C)c2nncn12` [Example 306, 8-(2-(difluoromethyl)-5-methylpyridin-4-yl)-N-(2-fluoro-6-methoxybenzyl)-[1,2,4]triazolo[4,3-a]pyridin-5-amine], which IC50 (EED (1-441)-His protein) is on record?
A: 30.9 nM

Q: What about the IC50 [1] of the same compound?
A: 41.8 nM

Q: And the IC50 [2]?
A: 15.5 nM

Q: Which results are given for `COc1cc(C)c(-c2ccc(NCc3c(F)cccc3OC)n3cnnc23)cn1` [Example 308, N-(2-fluoro-6-methoxybenzyl)-8-(6-methoxy-4-methylpyridin-3-yl)-[1,2,4] triazolo[4,3-a]pyridin-5-amine]?
A: IC50 (EED (1-441)-His protein): 18.6 nM; IC50 [1]: 117 nM; IC50 [2]: 17.4 nM

Q: For `COc1cccc(F)c1CNc1ccc(-c2ccc(O)nc2C)c2nncn12` [Example 309, 5-(5-((2-fluoro-6-methoxybenzyl)amino)-[1,2,4]triazolo[4,3-a]pyridin-8-yl)-6-methylpyridin-2-ol], which IC50 (EED (1-441)-His protein) is on record?
A: 15.8 nM

Q: And the IC50 [1]?
A: 60.6 nM

Q: What about the IC50 [2] of the same compound?
A: 11.6 nM

Q: Which results are given for `COc1ccc(-c2ccc(NCc3c(F)cccc3OC)n3cnnc23)c(C)n1` [Example 310, N-(2-fluoro-6-methoxybenzyl)-8-(6-methoxy-2-methylpyridin-3-yl)-[1,2,4] triazolo[4,3-a]pyridin-5-amine]?
A: IC50 (EED (1-441)-His protein): 13.6 nM; IC50 [1]: 56.1 nM; IC50 [2]: 16.6 nM

Q: `COc1cccc(F)c1CNc1ccc(-c2cn(CCO)nc2C(F)(F)F)c2nncn12` [Example 312, 2-(4-(5-((2-fluoro-6-methoxybenzyl)amino)-[1,2,4]triazolo[4,3-a]pyridin-8-yl)-3-(trifluoromethyl)-1H-pyrazol-1-yl)ethanol] was tested. Which IC50 (EED (1-441)-His protein) did it give?
A: 31.2 nM

Q: And the IC50 [1]?
A: 171 nM

Q: What about the IC50 [2] of the same compound?
A: 22.5 nM

Q: Which IC50 (EED (1-441)-His protein) does the source give for `COc1cccc(F)c1CNc1ccc(-c2cn(C)nc2C(F)F)c2nncn12` [Example 313, 8-(3-(difluoromethyl)-1-methyl-1H-pyrazol-4-yl)-N-(2-fluoro-6-methoxybenzyl)-[1,2,4]triazolo[4,3-a]pyridin-5-amine] here?
A: 3.4 nM

Q: What about the IC50 [1] of the same compound?
A: 14.7 nM

Q: And the IC50 [2]?
A: 4 nM

Q: Which IC50 (EED (1-441)-His protein) does the source give for `COc1cc(F)cc(F)c1CNc1ccc(-c2ccc(C)nc2C(F)F)c2nncn12` [Example 314, N-(2,4-difluoro-6-methoxybenzyl)-8-(2-(difluoromethyl)-6-methylpyridin-3-yl)-[1,2,4]triazolo [4,3-a]pyridin-5-amine] here?
A: 22.3 nM

Q: What about the IC50 [1] of the same compound?
A: 110 nM

Q: And the IC50 [2]?
A: 18.6 nM

Q: Which results are given for `COc1cccc(F)c1CNc1ccc(-c2ccc(C)nc2C(F)F)c2nncn12` [Example 315, 8-(2-(difluoromethyl)-6-methylpyridin-3-yl)-N-(2-fluoro-6-methoxybenzyl)-[1,2,4]triazolo[4,3-a]pyridin-5-amine]?
A: IC50 (EED (1-441)-His protein): 7.7 nM; IC50 [1]: 21.5 nM; IC50 [2]: 7.8 nM

Q: For `COc1cccc(F)c1CNc1ccc(-c2cnc(C)cc2C(F)F)c2nncn12` [Example 316, 8-(4-(difluoromethyl)-6-methylpyridin-3-yl)-N-(2-fluoro-6-methoxybenzyl)-[1,2,4]triazolo[4,3-a]pyridin-5-amine], which IC50 (EED (1-441)-His protein) is on record?
A: 15.7 nM

Q: And the IC50 [1]?
A: 215 nM

Q: What about the IC50 [2] of the same compound?
A: 17.3 nM

Q: Which IC50 (EED (1-441)-His protein) does the source give for `COc1cc(F)cc(F)c1CNc1ccc(-c2cnc(C)cc2C(F)F)c2nncn12` [Example 317, N-(2,4-difluoro-6-methoxybenzyl)-8-(4-(difluoromethyl)-6-methylpyridin-3-yl)-[1,2,4]triazolo [4,3-a]pyridin-5-amine] here?
A: 35.6 nM

Q: And the IC50 [1]?
A: 218 nM

Q: What about the IC50 [2] of the same compound?
A: 53.2 nM

Q: With `COc1ccc(-c2ccc(NCc3c(F)cc(F)cc3OC)n3cnnc23)c(C)n1` [Example 319, N-(2,4-difluoro-6-methoxybenzyl)-8-(6-methoxy-2-methylpyridin-3-yl)-[1,2,4] triazolo[4,3-a]pyridin-5-amine] as the compound, how does the IC50 (EED (1-441)-His protein) read?
A: 28.5 nM

Q: What about the IC50 [1] of the same compound?
A: 130 nM

Q: What about the IC50 [2] of the same compound?
A: 40.7 nM

Q: Which IC50 (EED (1-441)-His protein) does the source give for `COc1ncc(-c2ccc(NCc3c(F)cccc3OC)n3cnnc23)c(C)n1` [Example 322, N-(2-fluoro-6-methoxybenzyl)-8-(2-methoxy-4-methylpyrimidin-5-yl)-[1,2,4]triazolo[4,3-a]pyridin-5-amine] here?
A: 9.1 nM

Q: What about the IC50 [1] of the same compound?
A: 32.3 nM

Q: And the IC50 [2]?
A: 7.1 nM

Q: What does the source list for `COc1ncc(-c2ccc(NCc3c(F)cc(F)cc3OC)n3cnnc23)c(C)n1` [Example 323, N-(2,4-difluoro-6-methoxybenzyl)-8-(2-methoxy-4-methylpyrimidin-5-yl)-[1,2,4]triazolo[4,3-a]pyridin-5-amine]?
A: IC50 (EED (1-441)-His protein): 24.6 nM; IC50 [1]: 31.2 nM; IC50 [2]: 14.3 nM

Q: Which results are given for `COc1cc(F)cc(F)c1CNc1ccc(-c2ccc(C#N)nc2C)c2nncn12` [Example 324, 5-(5-((2,4-difluoro-6-methoxybenzyl)amino)-[1,2,4]triazolo[4,3-a]pyridin-8-yl)-6-methylpicolinonitrile]?
A: IC50 (EED (1-441)-His protein): 17.9 nM; IC50 [1]: 63.8 nM; IC50 [2]: 15.9 nM

Q: Which results are given for `COc1cccc(F)c1CNc1ccc(-c2cnccn2)c2nncn12` [Example 325, N-(2-fluoro-6-methoxybenzyl)-8-(pyrazin-2-yl)-[1,2,4]triazolo[4,3-a]pyridin-5-amine]?
A: IC50 (EED (1-441)-His protein): 37 nM; IC50 [1]: 141 nM; IC50 [2]: 33.8 nM
